Test results taken from PMC4823954, “From fighting depression to conquering tumors: a novel tricyclic thiazepine compound as a tubulin polymerization inhibitor” (Cell Death & Disease, 2016).

Tests used:
Assay in all cases: KINOMEscan
Assay type in all cases: binding
Conditions in all cases: read-out: % Ctrl
ROCK1 = target: T1, ROCK1 (Homo sapiens, UniProt Q13464)
T1 construct: purchased DiscoveRx KINOMEscan
Procedure: (§1) The binding assay for 442 non-mutant kinases was performed using KINOMEscan (DiscoveRx Corporation, Fremont, CA, USA) as reported previously.[58], [59] TBPT was screened at concentrations of 5 and 10 μM to identify the affected kinases. KINOMEscan is based on a competition reaction that quantitatively measures the ability of a test compound to compete with an active site-directed ligand for binding to the kinase active site. […] After the assay plates were incubated with shaking for 1 h, the liganded beads were washed with washing buffer (1 × PBS and 0.05% Tween 20). Then, the beads were re-suspended in elution buffer (1 × PBS, 0.05% Tween 20, and 0.5 μM ligand) and incubated with shaking for 30 min. The kinase concentration in the eluates was measured via qPCR. The results are represented as ‘%Ctrl', which was calculated using the following formula: (test compound signal–positive control signal)/(DMSO signal–positive control signal) × 100%. A lower % Ctrl indicates stronger binding to the kinase active site.

DMPK = target: T2, DMPK (Homo sapiens, UniProt Q09013)
T2 construct: purchased DiscoveRx KINOMEscan
Procedure: as §1

ASK2 = target: T3, ASK2 (Homo sapiens, UniProt O95382)
T3 construct: purchased DiscoveRx KINOMEscan
Procedure: as §1

EPHA6 = target: T4, EPHA6 (Homo sapiens, UniProt Q9UF33)
T4 construct: purchased DiscoveRx KINOMEscan
Procedure: as §1

CDKL3 = target: T5, CDKL3 (Homo sapiens, UniProt Q8IVW4)
T5 construct: purchased DiscoveRx KINOMEscan
Procedure: as §1

PHKG1 = target: T6, PHKG1 (Homo sapiens, UniProt Q16816)
T6 construct: purchased DiscoveRx KINOMEscan
T6 sequence (Q16816 whole entry): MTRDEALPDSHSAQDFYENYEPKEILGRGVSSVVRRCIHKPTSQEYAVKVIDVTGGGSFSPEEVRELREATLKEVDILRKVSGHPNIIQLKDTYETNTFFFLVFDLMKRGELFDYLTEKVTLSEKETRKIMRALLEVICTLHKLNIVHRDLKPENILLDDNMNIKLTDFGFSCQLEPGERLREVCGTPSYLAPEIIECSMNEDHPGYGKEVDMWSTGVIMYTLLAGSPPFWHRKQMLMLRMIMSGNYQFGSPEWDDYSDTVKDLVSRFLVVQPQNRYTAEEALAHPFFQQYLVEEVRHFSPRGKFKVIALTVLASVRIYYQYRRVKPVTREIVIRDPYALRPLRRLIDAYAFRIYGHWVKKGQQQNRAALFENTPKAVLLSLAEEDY
Procedure: as §1

WEE1 = target: T7, WEE1 (Homo sapiens, UniProt P30291)
T7 construct: purchased DiscoveRx KINOMEscan
T7 sequence (P30291 whole entry): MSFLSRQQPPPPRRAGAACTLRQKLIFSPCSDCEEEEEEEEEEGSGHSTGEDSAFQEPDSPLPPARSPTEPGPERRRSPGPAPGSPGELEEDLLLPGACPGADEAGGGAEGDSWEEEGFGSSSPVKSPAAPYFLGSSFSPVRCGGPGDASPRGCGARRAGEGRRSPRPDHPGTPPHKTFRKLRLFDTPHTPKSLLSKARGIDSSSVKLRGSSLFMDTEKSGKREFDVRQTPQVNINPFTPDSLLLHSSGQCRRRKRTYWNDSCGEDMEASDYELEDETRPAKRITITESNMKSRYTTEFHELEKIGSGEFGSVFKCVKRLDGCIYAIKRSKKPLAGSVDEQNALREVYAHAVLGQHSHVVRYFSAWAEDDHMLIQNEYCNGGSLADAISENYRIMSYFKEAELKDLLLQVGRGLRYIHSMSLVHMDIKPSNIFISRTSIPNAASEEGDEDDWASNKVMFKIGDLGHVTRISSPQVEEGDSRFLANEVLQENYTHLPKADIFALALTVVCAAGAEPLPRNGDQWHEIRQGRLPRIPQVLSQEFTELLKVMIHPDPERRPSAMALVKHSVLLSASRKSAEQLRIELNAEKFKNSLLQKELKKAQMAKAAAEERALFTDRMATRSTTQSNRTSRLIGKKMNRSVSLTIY
Procedure: as §1

ERK1 = target: T8, ERK1 (Homo sapiens, UniProt P27361)
T8 construct: purchased DiscoveRx KINOMEscan
T8 sequence (P27361 whole entry): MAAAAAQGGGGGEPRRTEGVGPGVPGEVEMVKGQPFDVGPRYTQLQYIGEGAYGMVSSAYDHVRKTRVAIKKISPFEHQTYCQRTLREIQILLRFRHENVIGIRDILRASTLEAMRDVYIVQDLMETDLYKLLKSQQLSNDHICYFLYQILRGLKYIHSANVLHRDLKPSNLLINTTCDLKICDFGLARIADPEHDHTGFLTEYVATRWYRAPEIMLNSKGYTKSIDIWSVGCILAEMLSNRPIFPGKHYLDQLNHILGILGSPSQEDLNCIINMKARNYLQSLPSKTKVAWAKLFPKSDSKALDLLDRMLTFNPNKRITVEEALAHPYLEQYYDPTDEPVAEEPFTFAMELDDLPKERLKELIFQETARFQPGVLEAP
Procedure: as §1

DAPK2 = target: T9, DAPK2 (Homo sapiens, UniProt Q9UIK4)
T9 construct: purchased DiscoveRx KINOMEscan
Procedure: as §1

PIP5K2C = target: T10, PIP5K2C (Homo sapiens, UniProt Q8TBX8)
T10 construct: purchased DiscoveRx KINOMEscan
Procedure: as §1

MLCK = target: T11, MLCK (Homo sapiens, UniProt Q32MK0)
T11 construct: purchased DiscoveRx KINOMEscan
Procedure: as §1

TGFBR1 = target: T12, TGFBR1 (Homo sapiens, UniProt P36897)
T12 construct: purchased DiscoveRx KINOMEscan
Procedure: as §1

PAK4 = target: T13, PAK4 (Homo sapiens, UniProt O96013)
T13 construct: purchased DiscoveRx KINOMEscan
Procedure: as §1

BLK = target: T14, BLK (Homo sapiens, UniProt P51451)
T14 construct: purchased DiscoveRx KINOMEscan
T14 sequence (P51451 whole entry): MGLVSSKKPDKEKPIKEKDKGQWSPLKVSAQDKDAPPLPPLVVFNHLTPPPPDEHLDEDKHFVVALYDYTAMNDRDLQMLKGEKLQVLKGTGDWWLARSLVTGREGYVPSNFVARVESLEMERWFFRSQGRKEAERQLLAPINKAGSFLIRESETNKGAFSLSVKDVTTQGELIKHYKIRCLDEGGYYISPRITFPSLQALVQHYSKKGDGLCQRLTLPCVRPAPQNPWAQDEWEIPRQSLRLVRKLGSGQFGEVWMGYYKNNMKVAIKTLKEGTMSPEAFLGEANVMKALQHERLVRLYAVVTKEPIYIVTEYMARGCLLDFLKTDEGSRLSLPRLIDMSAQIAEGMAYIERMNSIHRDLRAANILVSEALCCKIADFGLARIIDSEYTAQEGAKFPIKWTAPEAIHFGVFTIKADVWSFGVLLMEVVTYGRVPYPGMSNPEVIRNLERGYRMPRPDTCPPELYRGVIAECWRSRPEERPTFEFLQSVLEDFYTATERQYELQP
Procedure: as §1

TAOK2 = target: T15, TAOK2 (Homo sapiens, UniProt Q9UL54)
T15 construct: purchased DiscoveRx KINOMEscan
T15 sequence (Q9UL54 whole entry): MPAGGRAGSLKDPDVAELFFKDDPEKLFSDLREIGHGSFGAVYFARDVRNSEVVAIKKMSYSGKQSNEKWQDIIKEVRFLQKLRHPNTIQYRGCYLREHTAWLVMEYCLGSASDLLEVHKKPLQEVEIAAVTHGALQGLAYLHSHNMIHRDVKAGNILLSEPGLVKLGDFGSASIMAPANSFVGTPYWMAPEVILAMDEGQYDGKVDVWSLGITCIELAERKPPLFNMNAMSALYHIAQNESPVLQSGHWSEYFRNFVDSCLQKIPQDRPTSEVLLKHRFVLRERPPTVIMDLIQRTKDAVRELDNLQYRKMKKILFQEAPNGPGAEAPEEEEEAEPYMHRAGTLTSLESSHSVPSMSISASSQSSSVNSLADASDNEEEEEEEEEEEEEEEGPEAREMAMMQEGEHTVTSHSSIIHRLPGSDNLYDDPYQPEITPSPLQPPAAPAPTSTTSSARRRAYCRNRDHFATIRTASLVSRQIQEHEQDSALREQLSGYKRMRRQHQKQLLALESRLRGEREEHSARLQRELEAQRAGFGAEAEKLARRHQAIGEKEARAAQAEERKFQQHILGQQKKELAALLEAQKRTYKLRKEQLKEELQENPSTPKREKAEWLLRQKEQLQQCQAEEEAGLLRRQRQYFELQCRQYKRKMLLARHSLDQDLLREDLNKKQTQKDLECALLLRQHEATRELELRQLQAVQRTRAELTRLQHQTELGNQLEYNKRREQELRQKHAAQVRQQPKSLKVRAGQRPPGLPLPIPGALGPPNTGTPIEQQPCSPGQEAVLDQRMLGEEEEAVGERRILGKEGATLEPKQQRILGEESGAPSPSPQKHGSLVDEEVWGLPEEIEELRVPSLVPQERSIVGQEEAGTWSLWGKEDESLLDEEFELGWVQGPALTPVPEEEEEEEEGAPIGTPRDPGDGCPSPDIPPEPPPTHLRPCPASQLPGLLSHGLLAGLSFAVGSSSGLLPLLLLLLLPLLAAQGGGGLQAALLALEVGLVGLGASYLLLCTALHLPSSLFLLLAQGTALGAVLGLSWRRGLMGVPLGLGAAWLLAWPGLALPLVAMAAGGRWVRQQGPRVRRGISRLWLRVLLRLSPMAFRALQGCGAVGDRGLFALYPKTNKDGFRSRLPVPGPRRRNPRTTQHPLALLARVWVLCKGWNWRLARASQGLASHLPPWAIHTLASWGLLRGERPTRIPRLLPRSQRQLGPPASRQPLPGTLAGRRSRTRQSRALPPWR
Procedure: as §1

FGFR3 = target: T16, FGFR3 (Homo sapiens, UniProt P22607)
T16 construct: purchased DiscoveRx KINOMEscan
Procedure: as §1

TTK = target: T17, TTK (Homo sapiens, UniProt P33981)
T17 construct: purchased DiscoveRx KINOMEscan
Procedure: as §1

HUNK = target: T18, HUNK (Homo sapiens, UniProt P57058)
T18 construct: purchased DiscoveRx KINOMEscan
Procedure: as §1

[1] = target: T19, JAK3(JH1domain-catalytic) (Homo sapiens, UniProt P52333)
T19 construct: JAK3(JH1domain-catalytic); purchased DiscoveRx KINOMEscan
Procedure: as §1

NEK5 = target: T20, NEK5 (Homo sapiens, UniProt Q6P3R8)
T20 construct: purchased DiscoveRx KINOMEscan
Procedure: as §1

MAP3K3 = target: T21, MAP3K3 (Homo sapiens, UniProt Q99759)
T21 construct: purchased DiscoveRx KINOMEscan
T21 sequence (Q99759 whole entry): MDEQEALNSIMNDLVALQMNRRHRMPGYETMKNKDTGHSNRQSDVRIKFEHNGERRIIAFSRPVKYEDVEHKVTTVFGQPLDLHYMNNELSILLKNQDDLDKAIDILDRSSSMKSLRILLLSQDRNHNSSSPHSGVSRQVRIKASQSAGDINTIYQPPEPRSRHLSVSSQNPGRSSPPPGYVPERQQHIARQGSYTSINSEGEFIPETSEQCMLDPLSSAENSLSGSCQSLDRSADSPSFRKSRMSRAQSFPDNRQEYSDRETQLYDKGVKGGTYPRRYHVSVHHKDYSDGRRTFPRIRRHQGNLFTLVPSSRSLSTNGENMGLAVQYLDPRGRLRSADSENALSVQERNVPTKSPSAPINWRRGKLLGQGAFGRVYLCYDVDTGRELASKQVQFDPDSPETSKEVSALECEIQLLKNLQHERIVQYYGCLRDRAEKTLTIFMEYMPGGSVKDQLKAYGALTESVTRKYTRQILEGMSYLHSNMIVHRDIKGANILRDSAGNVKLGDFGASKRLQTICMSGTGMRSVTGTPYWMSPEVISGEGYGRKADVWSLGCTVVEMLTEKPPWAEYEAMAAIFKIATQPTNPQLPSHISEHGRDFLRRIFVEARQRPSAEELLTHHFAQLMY
Procedure: as §1

MINK = target: T22, MINK (Homo sapiens, UniProt Q8N4C8)
T22 construct: purchased DiscoveRx KINOMEscan
Procedure: as §1

AKT3 = target: T23, AKT3 (Homo sapiens, UniProt Q9Y243)
T23 construct: purchased DiscoveRx KINOMEscan
Procedure: as §1

BIKE = target: T24, BIKE (Homo sapiens, UniProt Q9NSY1)
T24 construct: purchased DiscoveRx KINOMEscan
Procedure: as §1

FLT3(R834Q) = target: T25, FLT3(R834Q) (Homo sapiens, UniProt P36888, R834Q)
T25 construct: purchased DiscoveRx KINOMEscan
Procedure: as §1

MUSK = target: T26, MUSK (Homo sapiens, UniProt O15146)
T26 construct: purchased DiscoveRx KINOMEscan
Procedure: as §1

EGFR(S752-I759del) = target: T27, EGFR(S752-I759del) (Homo sapiens, UniProt P00533, DEL752-759)
T27 construct: purchased DiscoveRx KINOMEscan
Procedure: as §1

MAK = target: T28, MAK (Homo sapiens, UniProt P20794)
T28 construct: purchased DiscoveRx KINOMEscan
Procedure: as §1

FYN = target: T29, FYN (Homo sapiens, UniProt P06241)
T29 construct: purchased DiscoveRx KINOMEscan
T29 sequence (P06241 whole entry): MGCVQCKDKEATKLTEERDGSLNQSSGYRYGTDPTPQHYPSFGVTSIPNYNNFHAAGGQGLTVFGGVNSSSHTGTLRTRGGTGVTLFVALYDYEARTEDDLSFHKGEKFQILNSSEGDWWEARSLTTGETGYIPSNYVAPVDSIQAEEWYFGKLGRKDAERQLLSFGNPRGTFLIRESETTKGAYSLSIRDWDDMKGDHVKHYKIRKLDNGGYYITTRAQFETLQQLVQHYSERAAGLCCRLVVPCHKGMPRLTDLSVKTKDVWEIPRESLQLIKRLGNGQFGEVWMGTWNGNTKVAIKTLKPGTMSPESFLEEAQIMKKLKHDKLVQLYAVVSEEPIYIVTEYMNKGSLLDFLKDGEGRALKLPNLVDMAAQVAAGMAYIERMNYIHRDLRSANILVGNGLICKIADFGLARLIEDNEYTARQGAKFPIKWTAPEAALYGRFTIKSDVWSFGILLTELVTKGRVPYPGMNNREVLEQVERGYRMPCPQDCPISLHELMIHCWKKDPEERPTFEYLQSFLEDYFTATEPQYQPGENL
Procedure: as §1

ARK5 = target: T30, ARK5 (Homo sapiens, UniProt O60285)
T30 construct: purchased DiscoveRx KINOMEscan
T30 sequence (O60285 whole entry): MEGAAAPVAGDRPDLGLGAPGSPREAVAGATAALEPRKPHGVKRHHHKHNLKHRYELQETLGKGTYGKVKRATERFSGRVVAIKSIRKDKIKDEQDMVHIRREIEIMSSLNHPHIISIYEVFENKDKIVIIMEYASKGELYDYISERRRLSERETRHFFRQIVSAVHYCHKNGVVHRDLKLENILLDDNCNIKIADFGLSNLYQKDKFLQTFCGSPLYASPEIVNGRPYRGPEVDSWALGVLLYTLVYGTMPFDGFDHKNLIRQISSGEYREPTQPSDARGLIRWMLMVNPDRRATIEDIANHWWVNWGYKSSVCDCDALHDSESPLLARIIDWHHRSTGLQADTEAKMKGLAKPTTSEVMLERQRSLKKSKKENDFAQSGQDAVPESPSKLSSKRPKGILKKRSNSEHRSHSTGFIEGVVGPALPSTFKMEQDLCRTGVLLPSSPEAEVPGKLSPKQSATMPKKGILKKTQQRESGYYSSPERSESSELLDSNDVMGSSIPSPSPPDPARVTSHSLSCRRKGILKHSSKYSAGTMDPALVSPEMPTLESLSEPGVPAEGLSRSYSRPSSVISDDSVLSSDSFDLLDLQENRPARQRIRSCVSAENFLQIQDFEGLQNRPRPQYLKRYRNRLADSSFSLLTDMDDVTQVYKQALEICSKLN
Procedure: as §1

`Cc1ccc(C2=Nc3cccnc3S(=O)(=O)c3ccccc32)cc1` [TBPT, 6-(p-tolyl)benzo[f] pyrido[2,3-b][1,4] thiazepine 11,11-dioxide] gave a remaining binding at 5 µM (ROCK1; 5 μM) of 84%, a remaining binding at 10 µM (ROCK1; 10 μM) of 100% and a remaining binding at 5 µM (DMPK; 5 μM) of 88%. For the same compound, the remaining binding at 10 µM (DMPK; 10 μM) was 100%, the remaining binding at 5 µM (ASK2; 5 μM) was 82% and the remaining binding at 10 µM (ASK2; 10 μM) was 100%. The remaining binding at 5 µM (EPHA6; 5 μM) was 98%, the remaining binding at 10 µM (EPHA6; 10 μM) was 92% and the remaining binding at 5 µM (CDKL3; 5 μM) was 77%. For the same compound, the remaining binding at 10 µM (CDKL3; 10 μM) was 74%, the remaining binding at 5 µM (PHKG1; 5 μM) was 100% and the remaining binding at 10 µM (PHKG1; 10 μM) was 94%. The remaining binding at 5 µM (WEE1; 5 μM) was 100%, the remaining binding at 10 µM (WEE1; 10 μM) was 96% and the remaining binding at 5 µM (ERK1; 5 μM) was 100%. The remaining binding at 10 µM (ERK1; 10 μM) was 100%, the remaining binding at 5 µM (DAPK2; 5 μM) was 100% and the remaining binding at 10 µM (DAPK2; 10 μM) was 99%. The remaining binding at 5 µM (PIP5K2C; 5 μM) was 100%, the remaining binding at 10 µM (PIP5K2C; 10 μM) was 100% and the remaining binding at 5 µM (MLCK; 5 μM) was 92%. For the same compound, the remaining binding at 10 µM (MLCK; 10 μM) was 95%, the remaining binding at 5 µM (TGFBR1; 5 μM) was 100% and the remaining binding at 10 µM (TGFBR1; 10 μM) was 85%. The remaining binding at 5 µM (PAK4; 5 μM) was 100%, the remaining binding at 10 µM (PAK4; 10 μM) was 100% and the remaining binding at 5 µM (BLK; 5 μM) was 88%. For the same compound, the remaining binding at 10 µM (BLK; 10 μM) was 88%, the remaining binding at 5 µM (TAOK2; 5 μM) was 90% and the remaining binding at 10 µM (TAOK2; 10 μM) was 67%. For the same compound, the remaining binding at 5 µM (FGFR3; 5 μM) was 89%, the remaining binding at 10 µM (FGFR3; 10 μM) was 100% and the remaining binding at 5 µM (TTK; 5 μM) was 100%. The remaining binding at 10 µM (TTK; 10 μM) was 100%, the remaining binding at 5 µM (HUNK; 5 μM) was 89% and the remaining binding at 10 µM (HUNK; 10 μM) was 84%. The remaining binding at 5 µM ([1]; 5 μM) was 100%, the remaining binding at 10 µM ([1]; 10 μM) was 100% and the remaining binding at 5 µM (NEK5; 5 μM) was 100%. The remaining binding at 10 µM (NEK5; 10 μM) was 100%, the remaining binding at 5 µM (MAP3K3; 5 μM) was 79% and the remaining binding at 10 µM (MAP3K3; 10 μM) was 92%. The remaining binding at 5 µM (MINK; 5 μM) was 89%, the remaining binding at 10 µM (MINK; 10 μM) was 83% and the remaining binding at 5 µM (AKT3; 5 μM) was 100%. The remaining binding at 10 µM (AKT3; 10 μM) was 100%, the remaining binding at 5 µM (BIKE; 5 μM) was 87% and the remaining binding at 10 µM (BIKE; 10 μM) was 93%. For the same compound, the remaining binding at 5 µM (FLT3(R834Q); 5 μM) was 89%, the remaining binding at 10 µM (FLT3(R834Q); 10 μM) was 100% and the remaining binding at 5 µM (MUSK; 5 μM) was 100%. The remaining binding at 10 µM (MUSK; 10 μM) was 100%, the remaining binding at 5 µM (EGFR(S752-I759del); 5 μM) was 79% and the remaining binding at 10 µM (EGFR(S752-I759del); 10 μM) was 100%. The remaining binding at 5 µM (MAK; 5 μM) was 94%, the remaining binding at 10 µM (MAK; 10 μM) was 100% and the remaining binding at 5 µM (FYN; 5 μM) was 85%. The remaining binding at 10 µM (FYN; 10 μM) was 95%, the remaining binding at 5 µM (ARK5; 5 μM) was 100% and the remaining binding at 10 µM (ARK5; 10 μM) was 100%.
